Experimental data: ChEMBL document CHEMBL1127119, “Pneumocandin antifungal lipopeptides. The phenolic hydroxyl is required for 1,3--glucan synthesis inhibition” (Bioorg Med Chem Lett, 1993)
In brackets after ≈: the same amount, converted by molar mass. Numbered stars: 1 amine (or outer) side, 2 acyl side, 3 side chain; on linkers, the order of the positions; unused ones are H or OH. Bridge positions count the residues as written; N and C are the ends. Square brackets hold non-standard residues; d marks the D form. Peptide text beside a SMILES is read from it. * marks the point of attachment. Orn(4R-OH,5R-OH) = O=C([C@H](C[C@@H](O)[C@@H](O)N[*:3])N[*:1])[*:2]; X3 = O=C([C@@H](N[*:1])[C@H](O)[C@@H](O)c1ccc(OP(=O)(O)O)cc1)[*:2]; hTyr(3S-OH,4S-OH) = N[C@H](C(=O)O)[C@H](O)[C@@H](O)c1ccc(O)cc1; X4 = O=C([C@@H](N[*:1])[C@H](O)[C@H](O)c1ccc(O)cc1)[*:2]; X2 = O=C([C@@H](N[*:1])[C@H](O)[C@@H](O)c1ccccc1)[*:2]; X6 = O=C(Oc1ccc(O)cc1)[C@@H](O)[C@H](N[*:1])C(=O)[*:2]; hTyr(3R-OH) = N[C@H](C(=O)O)[C@H](O)Cc1ccc(O)cc1; Gln(3R-OH) = NC(=O)C[C@@H](O)[C@H](N)C(=O)O; X5 = O=C([C@@H](N[*:1])[C@H](O)CO)[*:2]; Pro(3S-OH) = O=C(O)[C@H]1NCC[C@@H]1O; Hyp = O=C(O)[C@@H]1C[C@@H](O)CN1; X1 = CCC(C)CC(C)CCCCCCCCC(=O)*

Assays:
Mus musculus [1] = organism: Mus musculus; test: Minimum effective dose required for 99.9% reduction of viable CFUs recoverable from mouse kidneys compared with sham-treated controls.; format: functional, Kidney
Candida tropicalis = test: The compound was tested for its antifungal activity against Candida tropicalis (MY1012); format: functional
Candida parapsilosis = test: The compound was tested for its antifungal activity against Candida parapsilosis (MY1010); format: functional; details: Lodderomyces parapsilosis
Candida albicans [2] = test: The compound was tested for its antifungal activity against Candida albicans (MY1055); format: functional
Candida albicans [3] = test: The compound was tested for inhibition of 1,3-beta-glucan synthesis in a preparation containing membranes from Candida albicans (MY1208); format: functional
Mus musculus [4] = test: Minimum effective dose required for 99.9% reduction of viable CFUs recoverable from mouse kidneys infected with Candida albicans (MY1208) using in vivo Target Organ Kidney Assay (TOKA); format: functional

| SMILES | IC50 (Candida albicans [3]) [nM] | MED99.9 (Mus musculus [1]) [mg/kg] | MFC (Candida tropicalis) [µg/mL] | MFC (Candida parapsilosis) [µg/mL] | MFC (Candida albicans [2]) [µg/mL] | MED99.9 (Mus musculus [4]) [mg/kg] |
| --- | --- | --- | --- | --- | --- | --- |
| CCC(C)CC(C)CCCCCCCCC(=O)N[C@H]1C[C@@H](O)[C@@H](O)NC(=O)[C@@H]2[C@@H](O)CCN2C(=O)[C@H]([C@H](O)CC(N)=O)NC(=O)[C@H]([C@H](O)[C@@H](O)c2ccccc2)NC(=O)[C@@H]2C[C@@H](O)CN2C(=O)[C@H]([C@@H](C)O)NC1=O (stereo partly drawn) (X1-[Orn(4R-OH,5R-OH)]T[Hyp][X2][Gln(3R-OH)][Pro(3S-OH)]; lactam 1-C) | > 10000 | – | 1 (≈ 0.953 µM) | > 128 | 4 (≈ 3.81 µM) | >6 |
| CCC(C)CC(C)CCCCCCCCC(=O)N[C@H]1C[C@@H](O)[C@@H](O)NC(=O)[C@@H]2[C@@H](O)CCN2C(=O)[C@H]([C@H](O)CC(N)=O)NC(=O)[C@H]([C@H](O)[C@@H](O)c2ccc(OP(=O)(O)O)cc2)NC(=O)[C@@H]2C[C@@H](O)CN2C(=O)[C@H]([C@@H](C)O)NC1=O (stereo partly drawn) (X1-[Orn(4R-OH,5R-OH)]T[Hyp][X3][Gln(3R-OH)][Pro(3S-OH)]; lactam 1-C) | > 10000 | – | 4 (≈ 3.49 µM) | 32 (≈ 27.9 µM) | 2 (≈ 1.75 µM) | 6 |
| CCC(C)CC(C)CCCCCCCCC(=O)N[C@H]1C[C@@H](O)[C@@H](O)NC(=O)[C@@H]2[C@@H](O)CCN2C(=O)[C@H]([C@H](O)CC(N)=O)NC(=O)[C@H]([C@H](O)C(=O)Oc2ccc(O)cc2)NC(=O)[C@@H]2C[C@@H](O)CN2C(=O)[C@H]([C@@H](C)O)NC1=O (stereo partly drawn) (X1-[Orn(4R-OH,5R-OH)]T[Hyp][X6][Gln(3R-OH)][Pro(3S-OH)]; lactam 1-C) | > 1000 | – | 8 (≈ 7.41 µM) | 1 (≈ 0.927 µM) | 32 (≈ 29.7 µM) | – |

Second part, led by results:

| IC50 (Candida albicans [3]) [nM] | SMILES | MED99.9 (Mus musculus [1]) [mg/kg] | MFC (Candida tropicalis) [µg/mL] | MFC (Candida parapsilosis) [µg/mL] | MFC (Candida albicans [2]) [µg/mL] | MED99.9 (Mus musculus [4]) [mg/kg] |
| --- | --- | --- | --- | --- | --- | --- |
| 40 | CCC(C)CC(C)CCCCCCCCC(=O)N[C@H]1C[C@@H](O)[C@@H](O)NC(=O)[C@@H]2[C@@H](O)CCN2C(=O)[C@H]([C@H](O)CC(N)=O)NC(=O)[C@H]([C@H](O)Cc2ccc(O)cc2)NC(=O)[C@@H]2C[C@@H](O)CN2C(=O)[C@H]([C@@H](C)O)NC1=O (stereo partly drawn) (X1-[Orn(4R-OH,5R-OH)]T[Hyp][hTyr(3R-OH)][Gln(3R-OH)][Pro(3S-OH)]; lactam 1-C) | 3 | < 0.06 | 4 (≈ 3.81 µM) | 0.25 (≈ 0.238 µM) | – |
| > 1000 | CCC(C)CC(C)CCCCCCCCC(=O)N[C@H]1C[C@@H](O)[C@@H](O)NC(=O)[C@@H]2[C@@H](O)CCN2C(=O)[C@H]([C@H](O)CC(N)=O)NC(=O)[C@H]([C@H](O)CO)NC(=O)[C@@H]2C[C@@H](O)CN2C(=O)[C@H]([C@@H](C)O)NC1=O (stereo partly drawn) (X1-[Orn(4R-OH,5R-OH)]T[Hyp][X5][Gln(3R-OH)][Pro(3S-OH)]; lactam 1-C) | – | 8 (≈ 8.22 µM) | 8 (≈ 8.22 µM) | 32 (≈ 32.9 µM) | – |
| 70 | CCC(C)CC(C)CCCCCCCCC(=O)N[C@H]1C[C@@H](O)[C@@H](O)NC(=O)[C@@H]2[C@@H](O)CCN2C(=O)[C@H]([C@H](O)CC(N)=O)NC(=O)[C@H]([C@H](O)[C@@H](O)c2ccc(O)cc2)NC(=O)[C@@H]2C[C@@H](O)CN2C(=O)[C@H]([C@@H](C)O)NC1=O (stereo partly drawn) (X1-[Orn(4R-OH,5R-OH)]T[Hyp][hTyr(3S-OH,4S-OH)][Gln(3R-OH)][Pro(3S-OH)]; lactam 1-C) | – | 0.06 (≈ 0.0563 µM) | 4 (≈ 3.76 µM) | 0.25 (≈ 0.235 µM) | 6 |
| 5000 | CCC(C)CC(C)CCCCCCCCC(=O)N[C@H]1C[C@@H](O)[C@@H](O)NC(=O)[C@@H]2[C@@H](O)CCN2C(=O)[C@H]([C@H](O)CC(N)=O)NC(=O)[C@H]([C@H](O)[C@H](O)c2ccc(O)cc2)NC(=O)[C@@H]2C[C@@H](O)CN2C(=O)[C@H]([C@@H](C)O)NC1=O (stereo partly drawn) (X1-[Orn(4R-OH,5R-OH)]T[Hyp][X4][Gln(3R-OH)][Pro(3S-OH)]; lactam 1-C) | >6 | 64 (≈ 60.1 µM) | > 128 | 8 (≈ 7.51 µM) | – |
